Measurements published in patent publication US12011422B2, “Synthetic antibacterial compounds and uses thereof” (priority 2021, dated 2024).
Values after ≈ are worked out from the molar mass of the structure shown.

Columns and labels:
[1] = tested on: Pore-TolC E. coli; assay: MIC determination (CLSI broth microdilution) against Pore-TolC E. coli; type: cell-based, Escherichia coli; conditions: for Pore-TolC E. coli MIC: 37° C., 18 hours, lowest concentration showing <10% bacterial growth; for MIC: Escherichia coli, 18 h, read-out: Pore-TolC E. coli MIC, Pore-TolC E. coli, 37° C., lowest concentration showing <10% bacterial growth
Procedure: (§1) The protocol for MIC determination is based on the Clinical & Laboratory Standards Institute (CLSI) guidelines. MICs are determined by setting up 96-well microtiter plates with serially diluted concentrations in DMSO or water ranging from 0-256 μg/mL for each compound of the invention (e.g., 256 μg/mL, 128 μg/mL, 64 μg/mL, 32 μg/mL, 16 μg/mL, 8 μg/mL, 4 μg/mL, 2 μg/mL, 1 μg/mL, etc.). The total volume in each plate is about 200 μL, with 2 μL of each serial dilution added to each well. Clinical isolates of various bacteria are obtained from the American Type Culture Collection (ATCC) and colony-resuspended for MIC testing as per CLSI guidelines. Plates are incubated at 37° C. for 18 hours, and optical density is read on a Tecan M1000 Infinite Pro plate reader at 600 nm. At least 3 replicates are done for each query compound. The MIC for each compound is the lowest compound concentration showing <10% bacterial growth.
(§2) The protocol as described in Example 2 was used to determine the minimal inhibitory concentration (MIC) of each of the following compounds against a strain of S. aureus and Pore-TolC E. coli.

[2] = tested on: a strain of S. aureus; assay: MIC determination (CLSI broth microdilution) against S. aureus; type: cell-based, Staphylococcus aureus; conditions: 37° C., lowest concentration showing <10% bacterial growth; for MIC: Staphylococcus aureus, 18 h, read-out: Staph MIC; for Staph MIC: 18 hours
Procedure: as §1, §2

[3] = tested on: E. coli; assay: Checkerboard broth microdilution (FICI) in combination with Colistin against E. coli; type: cell-based, Escherichia coli; conditions: combined with Colistin (0-0.5 μg/mL) against E. coli; compound 0-32 μg/mL; FICI <= 0.5 is synergy
Text: In some embodiments, a compound of the invention and another antibacterial agent are synergistic. In some embodiments, a fractional inhibitory concentration (FIC) index calculation (shown below) is used to show synergy of a compound of the invention and another antibacterial agent.
FICother antibacterial agent=[other antibacterial agent]/MICother antibacterial agent, where [other antibacterial agent] is the lowest inhibitory concentration of the other antibacterial agent in the presence of a compound of the invention.
The FIC index (FICI) is the sum of the FICcompound of the invention and FICother antibacterial agent. Drug-Drug interactions having an FICI of less than or equal to 0.5 are deemed synergistic. In some embodiments, a compound of the invention and another antibacterial agent have a FICI of about 0.5, about 0.4, about 0.3, about 0.2, about 0.1 or about 0. […]
The effect of another antibacterial agent on the activity of the compounds of the invention is evaluated. […] Fractional inhibitory concentration indices (FICIs) are determined by setting up standard checkerboard broth microdilution assays in 96-well microtiter plates with serially diluted 8 (or 10) concentrations of each drug (disclosed compounds and the other antibacterial agent). […] Plates are incubated at 37° C. for 18 hours, and optical density is read on a Tecan M1000 Infinite Pro plate reader at 600 nm. […]

Row | SMILES | Pore-TolC E. coli MIC [1] | MIC [2] | MIC [1] | FICI [3] | Staph MIC [2]
1 | CC(C)=CCC/C(C)=C/Cc1c(O)cc(-c2cncnc2)cc1O [MLAP-1913] | 2 µg/mL | 8 µg/mL (≈ 24.7 µM) | – | – | –
2 | CC(C)=CCC/C(C)=C/Cc1c(O)cc(C)cc1O [MLEB-1850] | – | 8 µg/mL (≈ 30.7 µM) | 2 µg/mL (≈ 7.68 µM) | < 0.5 | –
3 | CC(C)=CCC/C(C)=C/Cc1c(O)cccc1O [MLEB-1864] | – | 4 µg/mL (≈ 16.2 µM) | 1 µg/mL (≈ 4.06 µM) | – | –
4 | CC(C)=CCC/C(C)=C/Cc1c(O)cc(Br)cc1O [MLEB-1917] | 0.5 µg/mL | 4 µg/mL (≈ 12.3 µM) | – | < 0.375 | –
5 | CC(=O)c1ccc(-c2cc(O)c(C/C=C(\C)CCC=C(C)C)c(O)c2)cc1 [MLEB-1996] | – | 32 µg/mL (≈ 87.8 µM) | > 32 µg/mL | – | –
6 | CC(C)=CCC/C(C)=C/Cc1c(O)cc(-c2cccc(C)c2C)cc1O [MLEB-1997] | – | 2 µg/mL (≈ 5.71 µM) | 1 µg/mL (≈ 2.85 µM) | – | –
7 | CC(C)=CCC/C(C)=C/Cc1c(O)cc(-c2ccc(C)cc2)cc1O [MLEB-1998] | – | 4 µg/mL (≈ 11.9 µM) | 1 µg/mL (≈ 2.97 µM) | – | –
8 | CC(C)=CCC/C(C)=C/Cc1c(O)cc(-c2ccc(C(F)(F)F)cc2)cc1O [MLEB-1999] | – | 1 µg/mL (≈ 2.56 µM) | 2 µg/mL (≈ 5.12 µM) | – | –
9 | CC(C)=CCC/C(C)=C/Cc1c(O)cc(-c2ccc(Cl)cc2)cc1O [MLEB-19100] | – | 2 µg/mL (≈ 5.6 µM) | 2 µg/mL (≈ 5.6 µM) | – | –
10 | CC(C)=CCC/C(C)=C/Cc1c(O)cc(-c2cccc(C(F)(F)F)c2)cc1O [MLEB-19101] | 1 µg/mL | – | – | – | 2 µg/mL
11 | CC(C)=CCC/C(C)=C/Cc1c(O)cc(-c2cc(C(F)(F)F)ccc2F)cc1O [MLEB-19102] | – | 2 µg/mL (≈ 4.9 µM) | 2 µg/mL (≈ 4.9 µM) | – | –
12 | CC(C)=CCC/C(C)=C/Cc1c(O)cc(-c2cccc(C=O)c2)cc1O [MLEB-19108] | – | 8 µg/mL (≈ 22.8 µM) | – | – | –
13 | CC(C)=CCC/C(C)=C/Cc1c(O)cc(-c2cnc3ccccc3c2)cc1O [MLEB-19109] | – | 32 µg/mL (≈ 85.7 µM) | 32 µg/mL (≈ 85.7 µM) | – | –
14 | CC(C)=CCC/C(C)=C/Cc1c(O)cc(-c2ccc(C=O)cc2)cc1O [MLEB-19110] | – | 8 µg/mL (≈ 22.8 µM) | – | – | –
15 | CC(C)=CCC/C(C)=C/Cc1c(O)cc(-c2cccc(C(F)(F)F)c2)cc1O [MLEB-19112] | – | 1 µg/mL (≈ 2.56 µM) | 1 µg/mL (≈ 2.56 µM) | – | –
16 | CC(C)=CCC/C(C)=C/Cc1c(O)cc(-c2c(F)cccc2F)cc1O [MLEB-19114] | – | 1 µg/mL (≈ 2.79 µM) | 0.5 µg/mL (≈ 1.39 µM) | – | –
17 | CC(C)=CCC/C(C)=C/Cc1c(O)cc(-c2cccc(O)c2)cc1O [MLEB-19115] | – | 4 µg/mL (≈ 11.8 µM) | 2 µg/mL (≈ 5.91 µM) | – | –
18 | CC(C)=CCC/C(C)=C/Cc1c(O)cc(Br)cc1O [MLEB-19116] | 4 µg/mL | – | – | – | 8 µg/mL
19 | CC(C)=CCC/C(C)=C/Cc1c(O)cc(-c2cnc(N)cn2)cc1O [MLEB-19117] | – | 4 µg/mL (≈ 11.8 µM) | – | – | –
20 | CC(C)=CCC/C(C)=C/Cc1c(O)cc(-c2cc(C(F)(F)F)cc(C(F)(F)F)c2)cc1O [MLEB-19118] | – | 1 µg/mL (≈ 2.18 µM) | 8 µg/mL (≈ 17.5 µM) | – | –

Row | SMILES | Pore-TolC E. coli MIC [1] | MIC [2] | MIC [1] | FICI [3] | Staph MIC [2]
21 | CC(C)=CCC/C(C)=C/Cc1c(O)cc(-c2c(C)noc2C)cc1O [MLEB-19120] | – | 2 µg/mL (≈ 5.86 µM) | – | – | –
22 | CC(C)=CCC/C(C)=C/Cc1c(O)cc(-c2ccccc2Cl)cc1O [MLEB-19121] | – | 0.5 µg/mL (≈ 1.4 µM) | – | – | –
23 | CC(C)=CCC/C(C)=C/Cc1c(O)cc(-c2ccncc2)cc1O [MLEB-19128] | – | 4 µg/mL (≈ 12.4 µM) | 2 µg/mL (≈ 6.18 µM) | – | –
24 | CC(C)=CCC/C(C)=C/Cc1c(O)cc(-c2cncnc2)cc1O [MLEB-19129] | 8 µg/mL | – | – | – | 16 µg/mL
25 | CC(C)=CCC/C(C)=C/Cc1c(O)cc(-c2ccc(F)nc2)cc1O [MLEB-19130] | – | 2 µg/mL (≈ 5.86 µM) | 2 µg/mL (≈ 5.86 µM) | – | –
26 | CC(C)=CCC/C(C)=C/Cc1c(O)cc(-c2ccc(C=O)cc2F)cc1O [MLEB-19131] | – | 2 µg/mL (≈ 5.43 µM) | 2 µg/mL (≈ 5.43 µM) | – | –
27 | CC(C)=CCC/C(C)=C/Cc1c(O)cc(-c2cccc(Cl)c2)cc1O [MLEB-19132] | – | 1 µg/mL (≈ 2.8 µM) | 1 µg/mL (≈ 2.8 µM) | – | –
28 | CC(C)=CCC/C(C)=C/Cc1c(O)cc(-c2cnccc2Cl)cc1O [MLEB-19133] | – | 4 µg/mL (≈ 11.2 µM) | 2 µg/mL (≈ 5.59 µM) | – | –
29 | CC(C)=CCC/C(C)=C/Cc1c(O)cc(-c2cccc([N+](=O)[O-])c2)cc1O [MLEB-19134] | – | 1 µg/mL (≈ 2.72 µM) | 1 µg/mL (≈ 2.72 µM) | – | –
30 | CC(C)=CCC/C(C)=C/Cc1c(O)cc(-c2ccnc(Cl)c2)cc1O [MLEB-19135] | – | 4 µg/mL (≈ 11.2 µM) | 1 µg/mL (≈ 2.79 µM) | – | –
31 | CC(C)=CCC/C(C)=C/Cc1c(O)cc(-c2ccc(C#N)cc2)cc1O [MLEB-19136] | – | 4 µg/mL (≈ 11.5 µM) | 2 µg/mL (≈ 5.76 µM) | – | –
32 | CC(C)=CCC/C(C)=C/Cc1c(O)cc(-c2cccnc2Cl)cc1O [MLEB-19137] | – | 1 µg/mL (≈ 2.79 µM) | 1 µg/mL (≈ 2.79 µM) | – | –
33 | COc1ccc(-c2cc(O)c(C/C=C(\C)CCC=C(C)C)c(O)c2)cn1 [MLEB-19138] | – | 16 µg/mL (≈ 45.3 µM) | – | – | –
34 | CC(C)=CCC/C(C)=C/Cc1c(O)cc(-c2cnc(Cl)nc2)cc1O [MLEB-19139] | – | 16 µg/mL (≈ 44.6 µM) | 4 µg/mL (≈ 11.1 µM) | – | –
35 | CC(C)=CCC/C(C)=C/Cc1c(O)cc(-c2ccc(C=O)o2)cc1O [MLEB-19161] | – | 4 µg/mL (≈ 11.8 µM) | 4 µg/mL (≈ 11.8 µM) | – | –
36 | CC(C)=CCC/C(C)=C/Cc1c(O)cc(-c2ccc(C#N)s2)cc1O [MLEB-19162] | – | 2 µg/mL (≈ 5.66 µM) | 4 µg/mL (≈ 11.3 µM) | – | –
37 | COc1ccc(-c2cc(O)c(C/C=C(\C)CCC=C(C)C)c(O)c2)cc1 [MLEB-19163] | – | 4 µg/mL (≈ 11.3 µM) | 2 µg/mL (≈ 5.67 µM) | – | –
38 | CC(C)=CCC/C(C)=C/Cc1c(O)cc(-c2ccc(C=O)c(F)c2)cc1O [MLEB-19164] | – | 2 µg/mL (≈ 5.43 µM) | 4 µg/mL (≈ 10.9 µM) | – | –
39 | CC(C)=CCC/C(C)=C/Cc1c(O)cc(-c2ccc([N+](=O)[O-])cc2)cc1O [MLEB-19165] | – | 2 µg/mL (≈ 5.44 µM) | 1 µg/mL (≈ 2.72 µM) | – | –
